Measured values as given in patent publication US4665086A, “Method for minimizing disturbances in circadian rhythms of bodily performance and function” (priority 1983, dated 1987).
Values joined by “and” are separate entries in the source; they are usually repeats but may differ in a detail not shown here. Equal entries are not always repeated. “Also recorded” adds a separate entry of the source. Where two headings read alike, the source gives them in different places.

Experiments:
[1] = test system: circadian rhythms in humans (jet lag); assay: Example 6: Subject C, flight Melbourne-Los Angeles-Washington-London-Vancouver-Melbourne, verbatim account; type: in vivo, human; settings: for overall effect on jet-lag (subject's impression, comment): 5 mg capsule on retiring and a second on awaking
Description: Subject C Flight from Melbourne→Los Angeles→Washington→London→Vancouver→Melbourne. 15.2.84-27.3.84 The subject, a Professor who had never taken Melatonin before, was given gelatin capsules containing 5 mg Melatonin and instructed to take one capsule on going to bed in the evening (local time) after arrival at their destination, and to take a further capsule if they awoke in the night.

human subjects = settings: pharmacological doses; cited from earlier work
[2] = test system: circadian rhythms in humans (jet lag); assay: Example 5: Subject B, double-blind trial, Capsule A (melatonin) vs Capsule B (placebo), flight Melbourne-Geneva-Rotterdam-Melbourne; type: in vivo, human
Excerpt: Subject B Flight from Melbourne→Geneva→Rotterdam→Melbourne 30.1.84-19.2.84
This was a double-blind trial. The subject, a Clinical Professor who had never taken Melatonin before, was given two bottles labelled A and B containing identical-looking gelatin capsules, and told to take one capsule A on going to bed, and again if awaking in the middle of the night, for the first 4 days after arrival in Geneva. They were told to take one capsule B according to the same schedule after return to Melbourne, and to record the quality of each night's sleep and feelings during the daytime. Capsule A contained 5 mg Melatonin. and capsule B contained a placebo (sucrose). Only after the subject had completed their written report 4 days after returning to Melbourne were they told which pills contained Melatonin and which contained placebo.

[3] = test system: circadian rhythms in humans (jet lag); type: in vivo, human
Description: Subject D Flight from Melbourne→London→Edinburgh→London→Melbourne 23.3.84-2.4.84 The subject, a Clinical Professor who had never taken Melatonin before, was given gelatin capsules containing 5 mg Melatonin and instructed to take one capsule on going to bed in the evening (local time) after arrival at their destination, and to take a further capsule if they awoke in the night.

[4] = test system: free-running circadian activity rhythm of rats; settings: pharmacological doses, only when given at onset of spontaneous activity; cited from earlier work
[5] = test system: circadian rhythms in humans (jet lag); assay: Example 1: Subject A, flight Melbourne-North Carolina-Melbourne, melatonin at local bedtime; type: in vivo, human
Excerpt: Subject A was a Professor of Physiology who had never taken melatonin before. |Flight from Melbourne → North Carolina, U.S.A. → Melbourne. |Details of activity schedule, sleeping time, melatonin administration. In this example Subject A used a preparation of crystalline melatonin in a gelatin capsule.

[6] = Example 9: absorption and clearance of orally administered melatonin, plasma radioimmunoassay; type: in vivo, human
Excerpt: This was two hours after a light breakfast of apple juice, cereal and tea. Blood sampling was continued until 1400 hrs. The blood was immediately centrifuged, and the plasma frozen until assayed for melatonin using a specific radioimmunoassay developed in the inventors' laboratory as a modification of the procedure originally described by D. J. Kennaway et al. (Endocrinology 110, 1766, 1982.) The results are shown in the accompanying FIG. 2.

[7] = test system: hamsters, sheep, ferrets and deer; settings: physiological doses by mouth, implant or injection; cited from earlier work
[8] = test system: circadian rhythms in humans (jet lag); assay: Example 3: Subject A, flight Melbourne-Stockholm-London-Melbourne, melatonin at local bedtime; type: in vivo, human; settings: 5 mg oral
Excerpt: |Subject A Flight from Melbourne → Stockholm → London |Detail of activity schedule, sleeping times, melatonin adminsitration.

[9] = test system: circadian rhythms in humans (jet lag); assay: Example 8: Subject E, flight London-Melbourne; type: in vivo, human; settings: 5 mg at bedtime; for symptoms of jet-lag: Easterly flight London-Melbourne
Excerpt: Subject E Flight from London→Melbourne→London 30.12.83-16.1.84

[10] = test system: circadian rhythms in humans (jet lag); assay: Example 2: Subject A, flight Melbourne-Munster-Melbourne, melatonin at local bedtime; type: in vivo, human; settings: 5 mg oral capsule
Excerpt: |Flight from Melbourne → Munster, W. Germany → Melbourne. |Details of activity schedule, sleeping time, melatonin administration. As in Example 1, Subject A took melatonin packaged in a gelatine capsule.

depressed patients = settings: cited from earlier work
[11] = test system: circadian rhythms in humans (jet lag, body temperature rhythm); assay: Example 4: Subject A, round-the-world flight, melatonin with rectal temperature record (Vitalog PMS8); type: in vivo, human
Excerpt: Subject A Flight from Melbourne→Geneva→London→Chapel Hill, N.C.→Melbourne 18.9.83-30.9.83. […] During this experiment use was made of a portable Vitalog PMS8 mini computer to record the temperature of Subject A. The Vitalog PMS8 recorded body temperature at ten minute intervals utilizing a rectal temperature probe. […] A discussion of the temperature record follows. During this flight Subject A wore the Vitalog PMS8 mini computer and rectal probe for the continuous recording of their deep body temperature. The equipment malfunctioned after 4 days due to premature battery failure. From 18.9.83- 23.9.83 Subject A kept a detailed daily log of quality and nature of sleep, modd, and alertness according to a technique developed by NASA. […] The dark, dotted regions represent dark periods. The time scale is for Melbourne time no matter where Subject A is identified by one of the letters A, B, C, D or E. Recordings of dark periods B, C and D have been repeated to give continuity to the record. The black arrows identify the times of administration of melatonin.

[12] = Capsule A = 5 mg Melatonin, Geneva

COc1ccc2[nH]cc(CCNC(C)=O)c2c1 [melatonin, 5-methoxy-N-acetyltryptamine]
overall effect on jet-lag (subject's impression, comment) [1]: prevented the usual, unpleasant symptoms associated with rapid changes in time zones | overall effect on jet-lag (subject's impression, comment) ([1]; listed as Melatonin): great improvement over my normal experience of jet-lag | feeling / adjustment the day after melatonin ([1]; Los Angeles, London (5 h change), Vancouver (8 h change)): felt very close to normal; also recorded: feeling normal and appeared to be fully adjusted to the London time; also recorded: felt a little unusual and later, around 4.00 pm felt very sleepy | sleep after taking melatonin ([1]; first night in Los Angeles): sleep that night appeared normal | effect on sleep (human subjects): induces drowsiness and sleep | time after entering new time zone until able to sleep at period coinciding with early morning in zone of departure [2]: ≤ 24 h | subject's blinded conclusion on effect of capsule ([2]; 5 mg melatonin per capsule, first 4 days in Geneva, double-blind): making them less tired and more alert in the meetings at WHO in Geneva | feeling during day (diary) [2, 12]: felt tired in morning | sleep after taking capsule (diary) [2, 12]: fell asleep again; also recorded: slept well; also recorded: sleep well | sleep after taking melatonin ([3]; Subject D, 5 mg (5+5 mg on Bombay-London leg), listed as Melatonin): did not induce sleep when taken on the outward journey | napping during daytime meeting talks ([3]; Subject D, much less than when using Mogadon): napped minimally | effects of discontinuing melatonin ([3]; human, in vivo): no adverse effects | entrainment of free-running circadian activity rhythm [4]: could entrain the free-running circadian activity rhythm of rats | symptoms of jet lag / fatigue (comment) ([5]; 2.5-5.0 mg oral melatonin at bedtime and on waking): no symptoms of jet lag whatsoever; also recorded: never felt any fatigue whatsoever | feeling on awakening after melatonin sleep (diary) ([5]; 2.5 or 5.0 mg oral per dose): Felt fresh, relaxed, not jet-lagged; also recorded: felt fresh, relaxed | sleep after taking melatonin (diary) ([5]; 2.5 or 5.0 mg oral per dose): fell asleep again | time to fall asleep again after taking additional melatonin ([5]; awoke during the night in North Carolina, oral crystalline melatonin in gelatin capsule): ≤ 15 min | plasma melatonin concentration at which subjective feelings of drowsiness were experienced ([6]; Subject A, 5 mg oral): exceeded 2 ng/ml | subjective effects coincident with maximal plasma levels ([6]; Subject A, 5 mg oral): yawning and sleepiness | Tmax ([6]; human, plasma, po, 5 mg, Subject A, 5 mg oral in gelatin capsule, read-out: time after ingestion to peak plasma concentration (converted)): 1.1 h | plasma values 260 minutes after ingestion relative to normal nocturnal values of around 100 pg/ml plasma ([6]; in vivo, po): 10 times higher | timing of the annual breeding season [7]: capable of altering the timing of the annual breeding season | sleep after taking melatonin (diary, comment) [8]: sleep well at an inappropriate time of the day | feeling jet-lagged (comment) ([8]; 8-9 hour time change): At no time during the day either in Sweden or on their return to Melbourne did they feel jet-lagged | feeling on awakening / during day after melatonin sleep (diary) ([8]; listed as Melatonin): Feeling fine; also recorded: Felt good; also recorded: feeling good; also recorded: Felt fine | sleep after taking melatonin (diary, comment) ([8]; listed as Melatonin): fell asleep again; also recorded: good sleep; also recorded: slept well; also recorded: sleep until 2330 hrs; also recorded: asleep 2400 hrs | time to fall asleep after taking melatonin (diary) ([8]; return flight after Singapore): 3/4 | sleep after taking melatonin [9]: slept well | symptoms of jet-lag [9]: no signs of jet-lag on the 3rd day | symptoms of jet-lag ([9]; listed as Melatonin): no symptoms of jet-lag; also recorded: appeared to prevent all symptoms of jet-lag | sleep after taking melatonin ([9]; listed as Melatonin): excellent night's sleep | sleep after taking melatonin (diary, comment) [10]: sleep well following both Westerly and Easterly flights | symptoms of jet lag (comment) ([10]; 8-hour time zone change): no symptoms of jet lag apart from tiredness on the second day after their return to Melbourne | feeling on awakening / during day after melatonin sleep (diary) ([10]; listed as Melatonin): Felt fresh and rested, much less tired; also recorded: feeling excellent; also recorded: feeling fine; also recorded: feeling good; also recorded: felt fresh and rested; also recorded: Felt tired during the day; also recorded: hangover | sleep after taking melatonin (diary, comment) ([10]; listed as Melatonin): fell asleep; also recorded: slept deeply; also recorded: good sleep; also recorded: slept very well; also recorded: slept well | effect on symptoms of depressed patients (depressed patients): exacerbation of symptoms including florid psychotic episodes | feeling on awakening / during day after melatonin sleep (diary) ([11]; 5 mg oral, listed as Melatonin): feeling excellent; also recorded: feeling drowsy, slight headache; also recorded: feeling fine; also recorded: feeling good; also recorded: Felt fine; also recorded: tired and sleepy and cold; also recorded: Felt very sleepy, but this soon passed | sleep after taking melatonin (diary) ([11]; 5 mg oral, listed as Melatonin): Fell asleep at once; also recorded: Did not fall asleep; also recorded: half an hour; also recorded: slept soundly | time to fall asleep after taking melatonin (diary) ([11]; 5 mg oral, listed as Melatonin): 30 min and 25 min | subjective symptoms of jet-lag (comment) ([11]; 5 mg oral, round-the-world flight in Westerly direction): no subjective symptoms of jet-lag | time of maximal body temperatures ([11]; after arrival in Geneva, rectal probe): around midnight Melbourne time | re-entrainment of body temperature rhythm ([11]; rectal temperature, after arrival in Geneva, FIG. 1): re-entrained extremely rapidly to Geneva time | time of lowest body temperatures ([11]; third and fourth sleep periods in Geneva, rectal probe): around mid-day Melbourne time
